Patent US6967196B1, “Sulfonamide compounds and uses thereof” (Bristol-Myers Squibb Company, priority 1999, dated 2005)
Where a name gives a salt, the structure may show the parent alone. Read-outs that look alike come from different tables or passages of the source. Blank lines part the entries; values can stand above or below the compound they belong to.

Test system: amyloid β production in transfected H4 (human neuroglioma) cells stably expressing APP constructs
Assay: In vitro cell-based assay of inhibitors of amyloid β production (ELISA)
Summary of the method: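 Aβ secreted into the medium was determined by a two-antibody ELISA specific for the Aβ C-terminus, calibrated with known Aβ amounts. Before that, compounds (10-100 μM initially) were left on the cells for roughly 16 hours.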

[1] = Homo sapiens, 16 h, transfected H4 cells stably expressing APP, approximately 16 hours incubation, amyloid β in medium by ELISA, read-out: ACTIVITY (IC50, inhibition of amyloid β production)
[2] = Homo sapiens, 16 h, transfected H4 cells stably expressing APP, approx. 16 h incubation, amyloid β in medium by ELISA, read-out: ACTIVITY (IC50, inhibition of amyloid β production)
[3] = transfected H4 cells stably expressing APP, approximately 16 hours incubation, amyloid β in medium by ELISA, read-out: ACTIVITY (IC50, inhibition of amyloid β production)
[4] = transfected H4 cells stably expressing APP, approx. 16 h incubation, amyloid β in medium by ELISA, read-out: ACTIVITY (IC50, inhibition of amyloid β production)
[5] = transfected H4 cells stably expressing APP, approximately 16 hours incubation, amyloid β in medium by ELISA, Table B, read-out: ACTIVITY (IC50, inhibition of amyloid β production)
[6] = read-out: ACTIVITY (inhibitory concentration IC50, inhibition of amyloid β production)
[7] = transfected H4 cells stably expressing APP constructs, approximately 16 hours incubation, amyloid β in medium by ELISA, read-out: ACTIVITY (IC50, inhibition of amyloid β production)
[8] = Homo sapiens, 16 h, transfected H4 cells stably expressing APP constructs, approximately 16 hours incubation, amyloid β in medium by ELISA, read-out: ACTIVITY (IC50, inhibition of amyloid β production)
[9] = Homo sapiens, 16 h, transfected H4 cells expressing APP, approximately 16 hours incubation, amyloid β in medium by ELISA, read-out: ACTIVITY (IC50, inhibition of amyloid β production)

Compound: CC(C)NC(=O)N(C)CCCOc1ccccc1CN(c1cc(F)ccc1F)S(=O)(=O)c1ccc(Cl)cc1 [Example 734, 4-chloro-N-(2,5-difluorophenyl)-N-(2-{3-[[(isopropylamino)carbonyl](methyl)amino]propoxy}benzyl)benzenesulfonamide]
IC50 [2]: 100 to 500 nM

Compound: O=S(=O)(c1ccc(Cl)cc1)N(Cc1ccccc1OCCC[N+]1([O-])CCCCC1)c1cc(Cl)ccc1Cl [Example 506]
IC50 [5]: 100 to 500 nM

Compound: CSc1ccccc1N(Cc1ccccc1OCCCN1CCCCC1)S(=O)(=O)c1ccc(Cl)cc1 [Example 238, 4-Chloro-N-[2-(methylsulfanyl)phenyl]-N-{2-[3-(1-piperidinyl)propoxy]benzyl}benzenesulfonamide Hydrochloride]
IC50 [6]: 25 to 50 nM

Compound: N-{3-[2-(1-{[(4-chlorophenyl)sulfonyl]-2,5-difluoroanilino}ethyl)phenoxy]propyl}-2,5-difluoro-N-methylbenzamide [Example 727]
IC50 [4]: 100 to 500 nM

Compound: CC(c1ccccc1OCCCN1CCCCC1)N(c1cc(F)ccc1F)S(=O)(=O)c1ccc(Cl)cc1 (centres unmarked) [Example 236, 4-Chloro-N-(2,5-difluorophenyl)-N-(1-{2-[3-(1-piperidinyl)propoxy]phenyl}ethyl)benzenesulfonamide Hydrochloride]
IC50 [6]: 25 to 50 nM

Compound: O=C(CCc1ccccc1CN(c1ccccc1)S(=O)(=O)c1ccccc1)N1CCCCC1 [Example 1041, N-{2-[3-oxo-3-(1-piperidinyl)propyl]benzyl}-N-phenylbenzenesulfonamide]
IC50 [1]: > 500 nM

Compound: CSC1CCN(CC[C@@H](C)N(c2cc(Cl)ccc2Cl)S(=O)(=O)c2ccc(Cl)cc2)CC1 [Example 1156, 4-chloro-N-(2,5-dichlorophenyl)-N-[3-[(4-methylthio)-1-piperidinyl]-1(R)-methylpropyl]benzenesulfonamide]
IC50 [7]: 100 to 500 nM

Compound: O=S1(=O)CCN(CCCOc2ccccc2CN(c2ccccc2)S(=O)(=O)c2ccc(Cl)cc2)CC1 [Example 313, 4-Chloro-N-{2-[3-(1,1-dioxido-4-thiomorpholinyl)propoxy]benzyl}-N-phenylbenzenesulfonamide Hydrochloride]
IC50 (transfected H4 cells stably expressing APP, approximately 16 hours incubation, amyloid β in medium by ELISA, Table B, Hydrochloride, read-out: ACTIVITY (IC50, inhibition of amyloid β production)): 50 to 100 nM

Compound: O=S(=O)(c1ccc(Cl)cc1)N(Cc1ccccc1OCCCN1CCCCC1)c1cccc(Br)c1 [Example 804, N-(3-bromophenyl)-4-chloro-N-{2-[3-(1-piperidinyl)propoxy]benzyl}benzenesulfonamide hydrochloride]
IC50 [2]: 100 to 500 nM

Compound: C[C@H](CCCSC(C)(C)C)N(c1cc(Cl)ccc1CO)S(=O)(=O)c1ccc(Cl)cc1 [Example 1229]
IC50 [7]: ≤ 25 nM

Compound: (2S)-2-[[2-((1R)-1-{[(4-chlorophenyl)sulfonyl]-2,5-difluoroanilino}ethyl)benzyl](methyl)amino]propanoic acid hydrochloride [Example 659]
IC50 [4]: 100 to 500 nM

Compound: C[C@H](CCCS(=O)(=O)N(C)C1CCCC1)N(c1cc(Cl)ccc1Cl)S(=O)(=O)c1ccc(Cl)cc1 [Example 1215, 4-chloro-N-[2,5-dichlorophenyl]-N-[4-[[(N-cyclopentyl)methylamino]sulfonyl]-1(R)-methylbutyl]benzenesulfonamide]
IC50 [7]: 25 to 50 nM

Compound: C[C@H](COC(=O)NCCCn1ccnc1)N(c1cc(Cl)ccc1Cl)S(=O)(=O)c1ccc(Cl)cc1 [Example 1240, 4-Chloro-N-(2,5-dichlorophenyl)-N-[2-[[N′-[3-(1H-imidazol-1-yl)propylamino]carbonyl]oxy]-(R)-1-methylethyl]benzenesulfonamide]
IC50 [7]: ≤ 25 nM

Compound: 2,2,2-trichloro-N-{3-[2-({[(4-chlorophenyl)sulfonyl]-2,5-difluoroanilino}methyl)phenoxy]propyl}-N-methylacetamide [Example 853]
IC50 [3]: 100 to 500 nM

Compound: CC(C)CSCCC[C@@H](C)N(c1cc(Cl)ccc1Cl)S(=O)(=O)c1ccc(Cl)cc1 [Example 1188]
IC50 [7]: 100 to 500 nM

Compound: COC(=O)[C@@H](CS(=O)(=O)Cc1cc(F)ccc1[C@@H](C)N(c1cc(F)ccc1F)S(=O)(=O)c1ccc(Cl)cc1)NC(=O)OC(C)(C)C [Example 471, Methyl (2S)-2-[(tert-butoxycarbonyl)amino]-3-{[2-((1R)-1-{[(4-chlorophenyl)sulfonyl]-2,5-difluoroanilino}ethyl)-5-fluorobenzyl]sulfonyl}propanoate]
IC50 [5]: 50 to 100 nM

Continued, values first:

IC50 [1]: > 500 nM
Compound: C[C@@H](Oc1ccc(Cl)cc1N(C)S(=O)(=O)c1ccc(Cl)cc1)c1ccc(F)cc1CCCC(=O)O [Example 935, 4-[2-((1R)-1-{4-chloro-2-[[(4-chlorophenyl)sulfonyl](methyl)amino]phenoxy}ethyl)-5-fluorophenyl]butanoic acid]

IC50 [3]: > 500 nM
Compound: N-{3-[2-({[(4-chlorophenyl)sulfonyl]-2,5-difluoroanilino}methyl)phenoxy]propyl}-N-methyl-3-(trifluoromethyl)benzamide [Example 891]

IC50 [4]: 100 to 500 nM
Compound: N-{3-[2-(1-{[(4-chlorophenyl)sulfonyl]-2,5-difluoroanilino}ethyl)phenoxy]propyl}-3,4,5-trimethoxybenzamide [Example 651]

IC50 [8]: > 10000 nM
Compound: O=S(=O)(c1ccc(Sc2ccccc2)cc1)N(Cc1ccccc1OCCCSc1ccccc1)c1cc(F)ccc1F [Example 1095, N-(2,5-difluorophenyl)-4-(phenylsulfanyl)-N-{2-[3-(phenylsulfanyl)propoxy]benzyl}benzenesulfonamide]

IC50 (Table B, transfected H4 cells stably expressing APP, approximately 16 hours incubation, amyloid β in medium by ELISA, read-out: ACTIVITY (inhibitory concentration IC50, inhibition of amyloid β production)): ≤ 25 nM
Compound: C[C@H](O)CCOC(c1ccccc1)(c1ccccc1)c1ccccc1 [Example 25, (S)-4-triphenylmethylyloxy-2-butanol]

IC50 [3]: 100 to 500 nM
Compound: N-{3-[2-(1-{[(4-chlorophenyl)sulfonyl]-2,5-difluoroanilino}ethyl)phenoxy]propyl}-N-methyl-2-naphthamide [Example 858]

IC50 [3]: 100 to 500 nM
Compound: N-{4-[2-(1-{[(4-chlorophenyl)sulfonyl]-2,5-difluoroanilino}ethyl)phenoxy]butyl}-N-methylacrylamide [Example 843]

IC50 [1]: > 500 nM
Compound: O=C(c1ccc(OC(F)(F)F)cc1)N1CCCCC1CCOc1ccccc1CN(c1cc(F)ccc1F)S(=O)(=O)c1ccc(Cl)cc1 (centres unmarked) [Example 1033, 4-chloro-N-(2,5-difluorophenyl)-N-[2-(2-{1-[4-(trifluoromethoxy)benzoyl]-2-piperidinyl}ethoxy)benzyl]benzenesulfonamide]

IC50 [3]: 100 to 500 nM
Compound: N-{2-[2-(1-{[(4-chlorophenyl)sulfonyl]-2,5-difluoroanilino}ethyl)phenoxy]ethyl}-N-methyltetradecanamide [Example 854]

IC50 [9]: > 500 nM
Compound: COc1ccc(CCNC(=O)[C@@H](C)N(c2cc(Cl)ccc2F)S(=O)(=O)c2ccc(Cl)cc2)cc1 [Example 1353]

IC50 [1]: > 500 nM
Compound: O=S(=O)(c1ccc(Cl)cc1)n1c(-c2ccccc2OCCCN2CCCCC2)c(Cl)c2ccccc21 [Example 1043, 3-chloro-1-[(4-chlorophenyl)sulfonyl]-2-{2-[3-(1-piperidinyl)propoxy]phenyl}-1H-indole trifluoroacetate]

IC50 [3]: > 500 nM
Compound: N-{3-[2-({[(4-chlorophenyl)sulfonyl]-2,5-difluoroanilino}methyl)phenoxy]propyl}-N-methyl-2-phenylcyclopropanecarboxamide [Example 917]

IC50 [1]: > 500 nM
Compound: O=S(=O)(c1ccccc1)N(Cc1ccccc1CCCCN1CCCCC1)c1ccccc1 [Example 1005, N-phenyl-N-{2-[4-(1-piperidinyl)butyl]benzyl}benzenesulfonamide]

IC50 [8]: 50 to 100 nM
Compound: COC(=O)NCCC[C@@H](C)N(c1cc(Cl)ccc1Cl)S(=O)(=O)c1ccc(Cl)cc1 [Example 1131, 4-chloro-N-(2,5-dichlorophenyl)-N-[4-[[(methoxy)carbonyl]amino]-1-methylbutyl]benzenesulfonamide]

IC50 [1]: > 500 nM
Compound: O=S(=O)(c1ccc(Cl)cc1)N(Cc1ccccc1OCCCBr)c1ccccc1 [Example 1039, N-[2-(3-bromopropoxy)benzyl]-4-chloro-N-phenylbenzenesulfonamide]

IC50 [9]: ≤ 25 nM
Compound: CC(CCOC(=O)NCCCn1ccnc1)N(c1cc(Cl)ccc1CO)S(=O)(=O)c1ccc(Cl)cc1 (centres unmarked) [Example 1289]

IC50 [3]: > 500 nM
Compound: CC(C)CC(C)C(=O)N(C)CCOc1ccccc1C(C)N(c1cc(F)ccc1F)S(=O)(=O)c1ccc(Cl)cc1 (centres unmarked) [Example 930, N-{2-[2-(1-{[(4-chlorophenyl)sulfonyl]-2,5-difluoroanilino}ethyl)phenoxy]ethyl}-N,2,4-trimethylpentamide]

IC50 [4]: 100 to 500 nM
Compound: (2Z)-N-{3-[2-(1-{[(4-chlorophenyl)sulfonyl]-2,5-difluoroanilino}ethyl)phenoxy]propyl}-3-phenyl-2-propenamide [Example 732]

IC50 [4]: 100 to 500 nM
Compound: 2-((1R)-1-{[(4-chlorophenyl)sulfonyl]-2,5-difluoroanilino}ethyl)benzyl 2-phenylethylcarbamate [Example 743]
